In ChEMBL document CHEMBL4417636, “Small molecule inhibitors of pendrin ion exchange and pharmaceutical compositions” (2017):
Activity calls are given as the source filed them. The rule behind the calls is not given here.

Assays:
Pendrin (Homo sapiens) [1] = molecular target: T1, Pendrin (Homo sapiens) (UniProt O43511); assay: Inhibition of human pendrin expressed in FRT cells co-expressing EYFP-HIF assessed as reduction in pendrin-mediated anion exchange at 100 uM incubated for 10 mins by pH-sensitive fluorescent probe BCECF-AM based fluorescence assay relative to control; assay type: cell-based
T1 sequence (whole entry): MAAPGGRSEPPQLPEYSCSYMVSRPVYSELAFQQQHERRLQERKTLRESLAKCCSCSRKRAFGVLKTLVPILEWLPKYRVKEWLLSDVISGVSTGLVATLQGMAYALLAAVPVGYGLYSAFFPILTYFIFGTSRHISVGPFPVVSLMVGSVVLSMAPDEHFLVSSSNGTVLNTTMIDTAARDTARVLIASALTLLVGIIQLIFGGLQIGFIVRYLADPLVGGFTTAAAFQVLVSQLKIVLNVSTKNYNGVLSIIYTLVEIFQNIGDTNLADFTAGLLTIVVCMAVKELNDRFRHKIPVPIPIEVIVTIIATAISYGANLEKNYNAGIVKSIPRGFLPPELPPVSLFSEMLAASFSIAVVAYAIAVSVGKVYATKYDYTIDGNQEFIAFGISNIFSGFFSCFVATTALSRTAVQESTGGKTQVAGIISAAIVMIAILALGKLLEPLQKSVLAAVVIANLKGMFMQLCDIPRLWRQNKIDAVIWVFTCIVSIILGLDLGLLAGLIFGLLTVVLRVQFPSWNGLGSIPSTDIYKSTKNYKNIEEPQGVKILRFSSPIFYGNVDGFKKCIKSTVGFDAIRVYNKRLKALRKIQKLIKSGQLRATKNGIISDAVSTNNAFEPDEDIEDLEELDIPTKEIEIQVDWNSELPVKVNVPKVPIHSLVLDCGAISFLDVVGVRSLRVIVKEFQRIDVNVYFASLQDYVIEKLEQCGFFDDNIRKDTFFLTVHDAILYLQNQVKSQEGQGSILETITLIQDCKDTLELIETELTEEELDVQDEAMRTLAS

Pendrin (Homo sapiens) [2] = molecular target: T1, Pendrin (Homo sapiens); assay: Inhibition of human pendrin expressed in FRT cells co-expressing EYFP-HIF assessed as reduction in pendrin-mediated anion exchange at 25 uM incubated for 10 mins by pH-sensitive fluorescent probe BCECF-AM based fluorescence assay relative to control; assay type: cell-based

SMILES	inhibition (Pendrin (Homo sapiens) [1]) [%]	inhibition (Pendrin (Homo sapiens) [2])
O=C(O)c1cccnc1Nc1cccc(C(F)(F)F)c1	< 40	
Cn1nc(COc2ccc(F)cc2)c2c1CCN(C(=O)Nc1cccc(Cl)c1)C2		60%
NS(=O)(=O)c1cc(C(=O)O)c(NCc2ccco2)cc1Cl		inactive
